Test results: paper PMC7703437, “In Vitro Hepatic Metabolism of Curcumin Diethyl Disuccinate by Liver S9 from Different Animal Species” (Frontiers in Pharmacology, 2020)

Columns and labels:
[1] = tested on: monkey LS9 (MLS9; cynomolgus); assay: In vitro metabolism profiling of CDD in monkey liver S9 (1 mg/ml); type: in vitro ADME
Procedure: (§1) The metabolism profiles of CDD were investigated against HLS9, MLS9, DLS9, and RLS9. A stock solution of CDD was prepared at 150 µM in 50% acetonitrile in water before use. The metabolism study was initiated by spiking 735 µl of preincubated LS9 with 15 µl of CDD stock solution, and the mixture was subsequently incubated at 37°C. The final concentrations of CDD and LS9 were 3 μM and 1 mg/ml, respectively. A 50-µl aliquot from the mixture was collected at 0.5, 1, 2, 3, 4, 5, 10, 15, 30, 45, 60, 90, and 120 min and immediately mixed with 100 µl of ice-cold acetonitrile containing 0.45 µM of internal standard DMC to terminate the metabolic reaction. […] The sample at the initial time point (0 min) was prepared as the other samples, except that heat-inactivated HLS9, MLS9, DLS9, and RLS9 (80°C for 20 min; 1 mg/ml protein) were used.
(§2) The UHPLC system consisted of an Agilent series 1290 quaternary pump with an online degasser, autosampler, column oven, and diode array detector. The mobile phase was composed of (A) 0.1% (v/v) formic acid in acetonitrile and (B) 0.1% (v/v) formic acid in water. Each solution was filtered through a nylon filter (pore size, 0.22 µm; MS® Membrane Filters; Membrane Solutions, United States) before use. The mobile phase flow rate was kept at 1.2 ml/min in a gradient mode using the following elution program: 0–3.0 min, initial A-B (40:60, v/v); 4.5–7.0 min, isocratic elution A-B [50:50, (v/v); 8.5–11.0 min, isocratic elution A-B (60:40, v/v); and 12.0–17.0 min, isocratic elution A-B (40:60, v/v)]. CDD, curcumin, and MSCUR in the supernatant were partitioned using a C8 column (4.6 mm × 50 mm, 2.7 µm; HALO, Advanced Materials Technology, United States) with reference to DMC. The detection wavelength was set at 400 nm (λ max(CDD) = 400 nm, λ max(curcumin) = 427 nm, λ max(MSCUR) = 418 nm, and λ max(DMC) = 421 nm). The column was maintained at 35°C throughout the run, and the supernatant injection volume was set at 20 µl.
(§3) The concentrations of CDD, curcumin, and MSCUR in the supernatant were determined from the standard plots, which were prepared by spiking individual working solutions of the compounds to heat-inactivated HLS9, MLS9, DLS9, and RLS9 ([Alcorn et al., 2007]; [Montoro-Garcia et al., 2009]; [Singh et al., 2010]). These working standards were extracted with 100 µl of ice-cold acetonitrile containing 0.45 µM of DMC and then 120 μl of the supernatant was diluted with 40 μl of water prior to the UHPLC analysis. The peak area ratios of CDD, curcumin, and MSCUR to the internal standard were computed against linear concentration ranges of 0.025–4.5 µM CDD, 0.025–4.5 µM curcumin, and 0.0125–0.75 µM MSCUR, respectively, with the coefficient of determination (r^2) values greater than 0.99.
(§4) The percent content of CDD and the metabolites formed upon its incubation with LS9, namely, curcumin and MSCUR, was plotted against incubation time.
(§5) The following equations were adopted to describe the changes in CDD and MSCUR content over time (t): A = A0e^−k1t (2) B= k1A0/k2−k1(e^−k1t−e^−k2t), (3) where A0 is the CDD concentration at time 0, k 1 is the degradation rate constant of CDD, and k 2 is the degradation rate constant of MSCUR. k 1 and k 2 were determined by using Eqs. 2 and 3, respectively, with nonlinear regression analysis using the SOLVER function of Microsoft Excel for Office 365 MSO (16.0.12527.20986) ([Brown, 2001]). The half-life (t 1/2) was calculated using Eq. 4: t1/2=0.693/k (4)
(§6) The in vitro intrinsic clearance (CLint,in vitro) of CDD and MSCUR in LS9 was calculated using Eq. 5: CLint, in vitro= k × [V]incubation(ml)/[P]incubation(mg protein), (5) where [V]incubation is the incubation volume in ml, and [P]incubation is the amount of LS9. […]

[2] = as above; type: in vitro ADME, monkey (cynomolgus); settings: liver S9; monkey LS9 1 mg/ml; read-out: t 1/2 (CDD)
Procedure: as §1, §2, §3, §4, §5, §6

CCOC(=O)CCC(=O)Oc1ccc(/C=C/C(=O)/C=C(O)/C=C/c2ccc(OC(=O)CCC(=O)OCC)c(OC)c2)cc1OC [CDD, curcumin diethyl disuccinate]
CLint, in vitro(CDD) ([1]; monkey LS9): 0.81 ± 0.13 ml min^−1 mg protein^−1
k 1 (CDD) ([1]; monkey LS9 1 mg/ml, CDD 3 µM, 37°C): 0.81 ± 0.13 min⁻¹
CLint, in vivo(CDD) ([1]; monkey, scaled from CLint,in vitro with physiologically based scaling factors): 176.96 ± 27.49 L/h/kg
CLint, in vivo total ([1]; monkey, sum of CLint,in vivo(CDD) and CLint,in vivo(MSCUR)): 4,704.26 ± 695.64 L h^−1 kg^−1
CLH (predicted hepatic clearance) ([1]; monkey, well-stirred model, QH 44 ml min^−1 kg^−1, fup 0.0594): 2.61 ± 3.87 × 10^–3 L h^−1 kg^−1
half-life at 3 µM [2]: 0.87 ± 0.13 min
